{
  "source": "PubChem BioAssay AID2060510",
  "about": "(Molecular Pharmacology Branch, DTP, NCI, 2025);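 note: spheroids exposed to the agents for 7 days before readout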;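 for viability, T/C: percent of luminescence signal in DMSO vehicle wells taken as 100% viability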",
  "system": "439559-082-T-J2-PDC spheroids viability",
  "test": "Anticancer human tumor 439559-082-T-J2-PDC patient-derived colon adenocarcinoma cell line growth inhibition [GQUAD]",
  "settings": "for IC50: curve of first compound; for viability, T/C: stronger effect = lower value",
  "excerpt": "DNA G-quadruplex Stabilizer Agents in Combinations in Complex Spheroids\nA high-throughput screen of multi-cell type tumor spheroids was designed to identify active combinations of DNA G-quadruplex stabilizer agents and targeted small molecules. Complex spheroids include a stromal component modeled by human endothelial cells (HUVEC) and fibroblasts modeled by human mesenchymal stem cells (MSCs). The concentration ranges selected for each drug and investigational agent were based upon clinically achievable concentrations if the clinical Cmax of the agent was known.\nCompounds. The drugs and investigational agents: pidnarulex (CX-5461; NSC782164), APTO-253 (NSC789042), BRACO-19 (NSC847499), peposertib (NSC802822), ceralasertib (NSC780249), elimusertib (NSC800525), camonsertib (NSC841442), AZD-1390 (NSC803789), olaparib (NSC753686), talazoparib (NSC767125), ART-558 (NSC835418), sotorasib (NSC818433), MRTX-1133 (NSC836407), SN-38 (NSC673596), topotecan (NSC609699), etoposide (NSC141540), doxorubicin (NSC123127), gemcitabine (NSC613327), 5-fluorouracil (NSC19893), paclitaxel (NSC125973), vemurafenib (NSC761431), panobinostat (NSC761190), R-306465 (JNJ-16241199; NSC773264), adavosertib (NSC754352), TP-3654 (NSC805149), carboplatin (NSC241240), KSQ-4279 (NSC840948), and staurosporine (NSC755774) were obtained from the National Cancer Institute (NCI) Developmental Therapeutics Program Chemical Repository (34). The FDA-approved anticancer drug set is available from the NCI Developmental Therapeutics Program. […] The stock solutions were prepared in dimethyl sulfoxide (DMSO, Sigma-Aldrich, St. Louis, MO, cat. D2650) at 800-fold the tested concentration and stored at -70 degrees C prior to their use. All drugs and investigational agents were tested over a range starting from a high concentration at or near the clinical Cmax and decreasing in half-log increments. If the clinical Cmax for an agent had not been determined, the highest concentration tested was 10 microM.\n2.3 Cell Culture. All cells were maintained in an incubator at 37 degrees C and 5% CO2 with 95% humidity. The PDC lines were cultured according to standard operating procedures established by the NCI PDMR. All PDCs were thawed and cultured in Matrigel-coated flasks prepared with a working solution of 1X Ham's F-12 nutrient mix, without supplementation (Invitrogen, cat. 11765054), 100 U/mL penicillin-streptomycin (Invitrogen, cat. 15140122), and 2.5% Matrigel (Corning Inc., cat. 354248) for the first three passages. The 857933-349-R-J2-PDC line was cultured in 6C/Colon 1B media, which includes advanced DMEM/F-12 (Thermo Fisher Scientific, cat. 12634028), 10 mM HEPES (Thermo Fisher Scientific, cat. 15630080), 1X GlutaMAX supplement (Thermo Fisher Scientific, cat. 35050061), 0.1 mg/mL primocin (InvivoGen, cat. ant-pm-2), 10% defined fetal bovine serum, heat inactivated (HyClone Laboratories Inc., cat. SH30070.03HI), 50% L-WRN conditioned media (ATCC, cat. CRL-3276), 1.25 mM N-Acetyl-L-cysteine (Sigma-Aldrich, cat. A9165), 10 mM nicotinamide (Sigma-Aldrich, cat. N0636), 1X B-27 supplement (Thermo Fisher Scientific, cat. 17504044), 1X N-2 supplement (Thermo Fisher Scientific, cat. 17502048), 10 microM Y-27632 dihydrochloride (Tocris Bioscience, cat. 1254), and 50 ng/mL human EGF recombinant protein (Thermo Fisher Scientific, cat. PHG0311). The 485176-168-R4-J1-PDC line was cultured in Panc media, which includes all 6C/Colon 1B media components plus 100 ng/mL human FGF-10 (Thermo Fisher Scientific, cat. 100-26), 500 nM SB-431542 (Selleckchem, cat. S1067), and gastrin (Tocris, cat. 3006).\n[…]",
  "data": [
    {"smiles": "Cn1ncnc1[C@H]1c2n[nH]c(=O)c3cc(F)cc(c23)N[C@@H]1c1ccc(F)cc1", "note": "+ CN(C)c1ccc(Nc2c3ccc(NC(=O)CCN4CCCC4)cc3nc3cc(NC(=O)CCN4CCCC4)ccc23)cc1", "values": [
      {"measurement": "IC50", "setting": "second compound 0.0316 µM", "value": "> 316", "unit": "nM"},
      {"measurement": "IC50", "setting": "second compound 0.1 µM", "value": "> 316", "unit": "nM"},
      {"measurement": "IC50", "setting": "second compound 0.316 µM", "value": "> 316", "unit": "nM"},
      {"measurement": "IC50", "setting": "second compound 1 µM", "value": "> 316", "unit": "nM"},
      {"measurement": "IC50", "setting": "second compound 3.16 µM", "value": "> 316", "unit": "nM"},
      {"measurement": "IC50", "setting": "second compound 10 µM", "value": "> 316", "unit": "nM"},
      {"measurement": "viability, T/C", "setting": "second compound 0.0316 µM, first compound 0.000999 µM", "value": 94.6, "unit": "%"},
      {"measurement": "viability, T/C", "setting": "second compound 0.0316 µM, first compound 0.00316 µM", "value": 97, "unit": "%"},
      {"measurement": "viability, T/C", "setting": "second compound 0.0316 µM, first compound 0.00999 µM", "value": 104, "unit": "%"},
      {"measurement": "viability, T/C", "setting": "second compound 0.0316 µM, first compound 0.0316 µM", "value": 96.3, "unit": "%"},
      {"measurement": "viability, T/C", "setting": "second compound 0.0316 µM, first compound 0.0999 µM", "value": 95.9, "unit": "%"},
      {"measurement": "viability, T/C", "setting": "second compound 0.0316 µM, first compound 0.316 µM", "value": 94.4, "unit": "%"},
      {"measurement": "viability, T/C", "setting": "second compound 0.1 µM, first compound 0.000999 µM", "value": 99.6, "unit": "%"},
      {"measurement": "viability, T/C", "setting": "second compound 0.1 µM, first compound 0.00316 µM", "value": 98.6, "unit": "%"},
      {"measurement": "viability, T/C", "setting": "second compound 0.1 µM, first compound 0.00999 µM", "value": 90.7, "unit": "%"},
      {"measurement": "viability, T/C", "setting": "second compound 0.1 µM, first compound 0.0316 µM", "value": 108, "unit": "%"},
      {"measurement": "viability, T/C", "setting": "second compound 0.1 µM, first compound 0.0999 µM", "value": 94.4, "unit": "%"},
      {"measurement": "viability, T/C", "setting": "second compound 0.1 µM, first compound 0.316 µM", "value": 85.3, "unit": "%"},
      {"measurement": "viability, T/C", "setting": "second compound 0.316 µM, first compound 0.000999 µM", "value": 99.6, "unit": "%"},
      {"measurement": "viability, T/C", "setting": "second compound 0.316 µM, first compound 0.00316 µM", "value": 106, "unit": "%"},
      {"measurement": "viability, T/C", "setting": "second compound 0.316 µM, first compound 0.00999 µM", "value": 97, "unit": "%"},
      {"measurement": "viability, T/C", "setting": "second compound 0.316 µM, first compound 0.0316 µM", "value": 94.4, "unit": "%"},
      {"measurement": "viability, T/C", "setting": "second compound 0.316 µM, first compound 0.0999 µM", "value": 93.8, "unit": "%"},
      {"measurement": "viability, T/C", "setting": "second compound 0.316 µM, first compound 0.316 µM", "value": 82.5, "unit": "%"},
      {"measurement": "viability, T/C", "setting": "second compound 1 µM, first compound 0.000999 µM", "value": 96.8, "unit": "%"},
      {"measurement": "viability, T/C", "setting": "second compound 1 µM, first compound 0.00316 µM", "value": 91.7, "unit": "%"},
      {"measurement": "viability, T/C", "setting": "second compound 1 µM, first compound 0.00999 µM", "value": 96, "unit": "%"},
      {"measurement": "viability, T/C", "setting": "second compound 1 µM, first compound 0.0316 µM", "value": 111, "unit": "%"},
      {"measurement": "viability, T/C", "setting": "second compound 1 µM, first compound 0.0999 µM", "value": 96.8, "unit": "%"},
      {"measurement": "viability, T/C", "setting": "second compound 1 µM, first compound 0.316 µM", "value": 92.5, "unit": "%"},
      {"measurement": "viability, T/C", "setting": "second compound 3.16 µM, first compound 0.000999 µM", "value": 101, "unit": "%"},
      {"measurement": "viability, T/C", "setting": "second compound 3.16 µM, first compound 0.00316 µM", "value": 102, "unit": "%"},
      {"measurement": "viability, T/C", "setting": "second compound 3.16 µM, first compound 0.00999 µM", "value": 89.6, "unit": "%"},
      {"measurement": "viability, T/C", "setting": "second compound 3.16 µM, first compound 0.0316 µM", "value": 99.2, "unit": "%"},
      {"measurement": "viability, T/C", "setting": "second compound 3.16 µM, first compound 0.0999 µM", "value": 98.1, "unit": "%"},
      {"measurement": "viability, T/C", "setting": "second compound 3.16 µM, first compound 0.316 µM", "value": 85.5, "unit": "%"},
      {"measurement": "viability, T/C", "setting": "second compound 10 µM, first compound 0.000999 µM", "value": 104, "unit": "%"},
      {"measurement": "viability, T/C", "setting": "second compound 10 µM, first compound 0.00316 µM", "value": 77.2, "unit": "%"},
      {"measurement": "viability, T/C", "setting": "second compound 10 µM, first compound 0.00999 µM", "value": 91.5, "unit": "%"},
      {"measurement": "viability, T/C", "setting": "second compound 10 µM, first compound 0.0316 µM", "value": 85.8, "unit": "%"},
      {"measurement": "viability, T/C", "setting": "second compound 10 µM, first compound 0.0999 µM", "value": 99.6, "unit": "%"},
      {"measurement": "viability, T/C", "setting": "second compound 10 µM, first compound 0.316 µM", "value": 85, "unit": "%"}
    ]}
  ]
}
